Measurements from paper PMC9519552, “Activation of the human insulin receptor by non-insulin-related peptides” (Nature Communications, 2022).
pIC50, pKi: −log10 of the molar value. Where two headings read alike, the source gives them in different places. Positions of bridges follow the written chain, without caps; N, C: chain ends. Residues, ends and D or L forms follow the SMILES beside them.

What was measured:
[1] = target: T1, human holoIR-A over-expressed in HEK293 cells (Homo sapiens, UniProt P06213); assay: Inhibition of hIR phosphorylation by peptides, co-incubated with BHI at its EC50 (ELISA); format: cell-based; settings: for hIRA Phosph IC50 Run 1 / hIRA Phosph IC50 Run 2 / hIRA Phosph IC50 Run 3: inhibition of insulin-stimulated phosphorylation; for hIRA Phosph IC50 Run 1: BHI at its EC50, run 1; for hIRA Phosph IC50 Run 2: BHI at its EC50, run 2; for hIRA Phosph IC50 Run 3: BHI at its EC50, run 3; for pIC50: read-out: hIRA Phosph IC50 Mean
T1 construct: expressed in transfected cells; host or cells: HEK293, stably transfected
T1 sequence (P06213 28-1370 isoform P06213-2 limits assumed): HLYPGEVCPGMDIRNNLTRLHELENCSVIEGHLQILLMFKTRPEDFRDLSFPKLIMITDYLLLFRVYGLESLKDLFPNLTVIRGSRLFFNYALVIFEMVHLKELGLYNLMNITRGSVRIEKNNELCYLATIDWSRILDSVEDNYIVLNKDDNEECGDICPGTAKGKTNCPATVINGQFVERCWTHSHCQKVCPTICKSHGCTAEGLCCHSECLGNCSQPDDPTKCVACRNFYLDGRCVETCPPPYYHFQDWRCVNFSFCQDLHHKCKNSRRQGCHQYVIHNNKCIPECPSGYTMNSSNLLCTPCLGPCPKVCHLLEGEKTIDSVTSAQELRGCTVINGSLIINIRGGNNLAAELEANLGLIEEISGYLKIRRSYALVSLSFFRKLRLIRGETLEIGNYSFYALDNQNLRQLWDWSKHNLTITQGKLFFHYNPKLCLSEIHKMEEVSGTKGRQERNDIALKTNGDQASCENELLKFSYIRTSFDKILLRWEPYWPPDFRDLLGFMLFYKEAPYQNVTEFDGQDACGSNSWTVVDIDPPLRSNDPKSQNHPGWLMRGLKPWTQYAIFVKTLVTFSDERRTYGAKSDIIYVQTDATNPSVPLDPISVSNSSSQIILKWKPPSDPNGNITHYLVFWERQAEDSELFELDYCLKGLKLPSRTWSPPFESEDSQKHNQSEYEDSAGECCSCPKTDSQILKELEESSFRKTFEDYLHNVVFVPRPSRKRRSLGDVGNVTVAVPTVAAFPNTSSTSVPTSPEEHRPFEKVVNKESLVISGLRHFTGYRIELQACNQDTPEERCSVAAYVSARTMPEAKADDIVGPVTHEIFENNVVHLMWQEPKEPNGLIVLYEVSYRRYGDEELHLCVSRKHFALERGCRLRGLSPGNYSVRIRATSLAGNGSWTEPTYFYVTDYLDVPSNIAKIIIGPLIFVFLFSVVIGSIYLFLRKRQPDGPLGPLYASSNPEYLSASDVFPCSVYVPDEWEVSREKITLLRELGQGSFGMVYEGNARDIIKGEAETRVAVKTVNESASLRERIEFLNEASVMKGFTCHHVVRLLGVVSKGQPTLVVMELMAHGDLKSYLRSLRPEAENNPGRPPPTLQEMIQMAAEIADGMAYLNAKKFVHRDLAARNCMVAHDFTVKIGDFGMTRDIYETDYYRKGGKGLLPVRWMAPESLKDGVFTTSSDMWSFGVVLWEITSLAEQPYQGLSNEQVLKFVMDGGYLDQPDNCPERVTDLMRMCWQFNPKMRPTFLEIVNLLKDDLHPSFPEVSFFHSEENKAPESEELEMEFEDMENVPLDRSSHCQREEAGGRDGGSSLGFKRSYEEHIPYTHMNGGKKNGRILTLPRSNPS
T1 sequence (P06213 763-1382 partner limits assumed): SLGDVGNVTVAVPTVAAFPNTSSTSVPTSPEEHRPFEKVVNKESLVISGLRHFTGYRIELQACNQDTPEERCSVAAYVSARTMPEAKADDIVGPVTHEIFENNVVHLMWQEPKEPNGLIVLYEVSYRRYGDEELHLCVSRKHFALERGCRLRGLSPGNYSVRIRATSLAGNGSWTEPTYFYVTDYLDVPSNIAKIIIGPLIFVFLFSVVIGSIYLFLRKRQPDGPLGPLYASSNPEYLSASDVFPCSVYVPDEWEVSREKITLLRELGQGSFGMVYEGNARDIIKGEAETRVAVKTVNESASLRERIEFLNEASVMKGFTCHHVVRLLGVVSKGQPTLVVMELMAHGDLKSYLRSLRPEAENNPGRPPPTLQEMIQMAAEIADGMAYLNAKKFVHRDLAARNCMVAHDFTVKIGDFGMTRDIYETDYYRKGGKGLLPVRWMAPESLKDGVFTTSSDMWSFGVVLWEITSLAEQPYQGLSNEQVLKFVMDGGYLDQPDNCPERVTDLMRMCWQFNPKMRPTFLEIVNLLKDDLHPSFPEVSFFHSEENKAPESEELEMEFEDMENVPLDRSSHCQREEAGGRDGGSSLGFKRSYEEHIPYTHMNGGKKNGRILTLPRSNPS
Method: Phosphorylation was quantified using an ELISA technique. Ninety-six well, flat-bottom microplates (Greiner Bio-One) were pre-coated with 2 µg mL^−1 anti-C9 monoclonal antibody (Rho 1D4; University of British Columbia)[27] in 20 mM sodium carbonate, pH 9.6, at 4 °C for overnight prior to the assay. On the assay day, plates were washed 3× with 0.1% Tween in 50 mM Tris Buffer Saline, pH 7.5 (TBST), and then blocked for greater than 1 h at room temperature (RT) with 1% BSA (Sigma) in TBST.
Stably transfected HEK293 cells over-expressing human holoIR-A containing a C-terminal C9 epitope tag ([…]), were plated at 6 × 10^4 cells per well serum-starved using 0.1% BSA in DMEM (Gibco) for overnight at standard tissue culture condition. […] After a 15-min incubation in lysis buffer at 4 °C, the lysate was transferred to anti-C9 antibody coated capture plate (Rho 1D4; University of British Columbia)[27]. […] After a 1 h incubation at room temperature, the secondary antibody was removed by washing 3× with TBST. Signal detection occurred with the addition of TMB, an HRP substrate (Pierce). After 5–10 min, the reaction was stopped by adding an equal volume of 2 M H2SO4, and the absorbance readings at 450 nm (A450) were recorded using a Envision plate reader (PerkinElmer). Samples were tested in three independent assay runs on three different days.
Percent specific response (y-axis) was plotted versus the log concentration of compound (x-axis) using Prism Version 9.3.1 (GraphPad Software). Individual measurements are provided as Source Data.

[2] = target: T2, human IR-A (holoIR-A) (Homo sapiens, UniProt P06213); assay: holoIR-A competitive radioligand binding assay (scintillation proximity assay); settings: for pKi / Ki: IM172N22(-) mutant peptide set; for pKi: mean of 3 runs, read-out: hIRA Binding Ki Mean; for reduction in ki for hIR-A on substitution: relative to control peptide IM172N22 devoid of N-terminal phenylacetylation
T2 construct: expressed in transfected cells; host or cells: HEK293 (ATCC #CRL-1573), stably transfected; membrane preparation
T2 sequence (P06213 28-1370 isoform P06213-2 limits assumed): as the sequence (P06213 28-1370 isoform P06213-2 limits assumed) above
T2 sequence (P06213 763-1382 partner limits assumed): as the sequence (P06213 763-1382 partner limits assumed) above
Method: Cellular membranes were prepared from human embryonic kidney (HEK293; ATCC #CRL-1573) cells stably transfected with cDNA corresponding to human IR-A (holoIR-A) plus a C-terminal C9 tag ([…]) inserted within a pcDNA3.1 plasmid (Invitrogen), with positive clones selected with 800 μg mL^−1 neomycin and confirmed by Western Blot. Frozen cell pellets were thawed in ice-cold homogenization/resuspension buffer (50 mM Tris-HCl, pH 7.5) containing one cOmplete® protease inhibitor tablet with EDTA (Roche Diagnostics) per 50 mL buffer. Cells were homogenized with an overhead motor-driven Teflon-glass homogenizer using 15–20 strokes, followed by centrifugation at 1100 × g for 10 min at 4 °C. The supernatant was saved on ice, pellets were homogenized as before, and centrifuged at 1100 × g for 10 min at 4 °C. Both supernatants were combined and subsequently centrifuged at 35,000 × g for 60 min at 4 °C. The pellet was resuspended in buffer (4 to 5 mL g^−1 of starting cell paste) containing protease inhibitors and quick frozen in liquid nitrogen prior to storage at −80 °C. Protein concentration was determined using a BCA kit (Thermo Scientific) with bovine serum albumin (BSA) as standard.
The assays were performed with a scintillation proximity assay (SPA) method using polyvinyltoluene (PVT) wheat germ agglutinin-coupled SPA beads (Perkin Elmer). Assay buffer containing 50 mM Tris-HCl (pH 7.5), 150 mM NaCl, 0.1% w/v fatty-acid free BSA was used for all compound testing and reagent preparation. Ten-point concentration response curves with three-fold serial dilutions of test samples or controls were prepared in the assay buffer. […] Plates were sealed and shaken for 1 min on a plate shaker. Following a 10-h incubation and bead settling period at room temperature, radioactivity was determined using a MicroBeta Trilux scintillation counter (Perkin Elmer) and expressed as counts per minute (CPM). […] Samples were tested in three independent assay runs on three different days.
All test sample concentration responses were normalized to the control response and calculated as a percent of the maximal response after correcting for nonspecific binding as shown below: %Specific Inhibition=100%−[(CPM−MIN)/(MAX−MIN)×100%]
Percent specific binding (y-axis) was plotted vs log concentration of compound (x-axis) using Prism Version 9.3.1 (GraphPad Software). Individual measurements are provided as Source Data.

[3] = run 1, read-out: hIRA Binding Ki Run 1
[4] = run 2, read-out: hIRA Binding Ki Run 2
[5] = run 3, read-out: hIRA Binding Ki Run 3

Structure (SMILES): CC[C@H](C)[C@H](NC(=O)[C@H](CCC(N)=O)NC(=O)[C@H](C)NC(=O)[C@H](Cc1c[nH]c2ccccc12)NC(=O)[C@H](CCC(=O)O)NC(=O)[C@H](CCC(=O)O)NC(=O)[C@H](CCC(=O)O)NC(=O)[C@H](CC(C)C)NC(=O)[C@H](CO)NC(C)=O)C(=O)N[C@@H](C)C(=O)N[C@H]1CSSC[C@@H](C(=O)N2CCC[C@H]2C(=O)N2CCC[C@H]2C(=O)N[C@@H](CO)C(=O)N[C@@H](CCC(=O)O)C(=O)N[C@@H](CO)C(N)=O)NC(=O)[C@H](CCCNC(=N)N)NC(=O)CNC(=O)[C@H](Cc2ccc(O)cc2)NC(=O)[C@H](C(C)C)NC(=O)[C@H](CCC(=O)O)NC1=O [Peptide E10A] (Ac-SLEEEWAQIACEVYGRCPPSES-NH2; disulfide 11-17)
- hIRA Phosph IC50 Run 1 [1]: 272 nM
- hIRA Phosph IC50 Run 2 [1]: 217 nM
- hIRA Phosph IC50 Run 3 [1]: 236 nM
- pIC50 [1]: 6.62
- pKi [2]: 7.72
- Ki [2, 3]: 19.4 nM
- Ki [2, 4]: 16.4 nM
- Ki [2, 5]: 21.2 nM
- reduction in ki for hIR-A on substitution [2]: lower than 5 fold

Structure (SMILES): CC[C@H](C)[C@H](NC(=O)[C@H](CCC(N)=O)NC(=O)[C@H](C)NC(=O)[C@H](Cc1c[nH]c2ccccc12)NC(=O)[C@H](CCC(=O)O)NC(=O)[C@H](CCC(=O)O)NC(=O)[C@H](CCC(=O)O)NC(=O)[C@H](CC(C)C)NC(=O)[C@H](CO)NC(C)=O)C(=O)N[C@@H](CCCNC(=N)N)C(=O)N[C@H]1CSSC[C@@H](C(=O)N2CCC[C@H]2C(=O)N2CCC[C@H]2C(=O)N[C@@H](CO)C(=O)N[C@@H](CCC(=O)O)C(=O)N[C@@H](CO)C(N)=O)NC(=O)[C@H](CCCNC(=N)N)NC(=O)CNC(=O)[C@H](Cc2ccc(O)cc2)NC(=O)[C@H](C(C)C)NC(=O)[C@H](CCC(=O)O)NC1=O [Peptide E10R] (Ac-SLEEEWAQIRCEVYGRCPPSES-NH2; disulfide 11-17)
- hIRA Phosph IC50 Run 1 [1]: 27 nM
- hIRA Phosph IC50 Run 2 [1]: 27 nM
- hIRA Phosph IC50 Run 3 [1]: 24 nM
- pIC50 [1]: 7.58
- pKi [2]: 8.43
- Ki [2, 3]: 3.77 nM
- Ki [2, 4]: 3.11 nM
- Ki [2, 5]: 4.23 nM

Structure (SMILES): CC[C@H](C)[C@H](NC(=O)[C@H](CCC(N)=O)NC(=O)[C@H](C)NC(=O)[C@H](Cc1c[nH]c2ccccc12)NC(=O)[C@H](CCC(=O)O)NC(=O)[C@H](CCC(=O)O)NC(=O)[C@H](CCC(=O)O)NC(=O)[C@H](CC(C)C)NC(=O)[C@H](CO)NC(C)=O)C(=O)N[C@@H](CCC(=O)O)C(=O)N[C@H]1CSSC[C@@H](C(=O)N2CCC[C@H]2C(=O)N2CCC[C@H]2C(=O)N[C@@H](CO)C(=O)N[C@@H](CCC(=O)O)C(=O)N[C@@H](CO)C(N)=O)NC(=O)[C@H](CCCNC(=N)N)NC(=O)CNC(=O)[C@H](Cc2ccc(O)cc2)NC(=O)[C@H](C(C)C)NC(=O)[C@H](C)NC1=O [Peptide E12A] (Ac-SLEEEWAQIECAVYGRCPPSES-NH2; disulfide 11-17)
- hIRA Phosph IC50 Run 1 [1]: 343 nM
- hIRA Phosph IC50 Run 2 [1]: 247 nM
- hIRA Phosph IC50 Run 3 [1]: 295 nM
- pIC50 [1]: 6.53
- pKi [2]: 7.30
- Ki [2, 3]: 44.9 nM
- Ki [2, 4]: 52.2 nM
- Ki [2, 5]: 53.9 nM

Structure (SMILES): CC[C@H](C)[C@H](NC(=O)[C@H](CCC(N)=O)NC(=O)[C@H](C)NC(=O)[C@H](Cc1c[nH]c2ccccc12)NC(=O)[C@H](CCC(=O)O)NC(=O)[C@H](CCC(=O)O)NC(=O)[C@H](CCC(=O)O)NC(=O)[C@H](CC(C)C)NC(=O)[C@H](CO)NC(C)=O)C(=O)N[C@@H](CCC(=O)O)C(=O)N[C@H]1CSSC[C@@H](C(=O)N2CCC[C@H]2C(=O)N2CCC[C@H]2C(=O)N[C@@H](CO)C(=O)N[C@@H](CCC(=O)O)C(=O)N[C@@H](CO)C(N)=O)NC(=O)[C@H](CCCNC(=N)N)NC(=O)CNC(=O)[C@H](Cc2ccc(O)cc2)NC(=O)[C@H](C(C)C)NC(=O)[C@H](CCCNC(=N)N)NC1=O [Peptide E12R] (Ac-SLEEEWAQIECRVYGRCPPSES-NH2; disulfide 11-17)
- hIRA Phosph IC50 Run 1 [1]: 2869 nM
- hIRA Phosph IC50 Run 2 [1]: 2922 nM
- hIRA Phosph IC50 Run 3 [1]: 2670 nM
- pIC50 [1]: 5.55
- pKi [2]: 6.88
- Ki [2, 3]: 117 nM
- Ki [2, 4]: 126 nM
- Ki [2, 5]: 152 nM

Structure (SMILES): CC[C@H](C)[C@H](NC(=O)[C@H](CCC(N)=O)NC(=O)[C@H](C)NC(=O)[C@H](Cc1c[nH]c2ccccc12)NC(=O)[C@H](CCC(=O)O)NC(=O)[C@H](CCC(=O)O)NC(=O)[C@H](CCC(=O)O)NC(=O)[C@H](CC(C)C)NC(=O)[C@H](CO)NC(C)=O)C(=O)N[C@@H](CCC(=O)O)C(=O)N[C@H]1CSSC[C@@H](C(=O)N2CCC[C@H]2C(=O)N2CCC[C@H]2C(=O)N[C@@H](CO)C(=O)N[C@@H](C)C(=O)N[C@@H](CO)C(N)=O)NC(=O)[C@H](CCCNC(=N)N)NC(=O)CNC(=O)[C@H](Cc2ccc(O)cc2)NC(=O)[C@H](C(C)C)NC(=O)[C@H](CCC(=O)O)NC1=O [Peptide E21A] (Ac-SLEEEWAQIECEVYGRCPPSAS-NH2; disulfide 11-17)
- hIRA Phosph IC50 Run 1 [1]: 147 nM
- hIRA Phosph IC50 Run 2 [1]: 122 nM
- hIRA Phosph IC50 Run 3 [1]: 132 nM
- pIC50 [1]: 6.87
- pKi [2]: 7.76
- Ki [2, 3]: 19.79 nM
- Ki [2, 4]: 18.2 nM
- Ki [2, 5]: 14.7 nM
- reduction in ki for hIR-A on substitution [2]: lower than 5 fold

Structure (SMILES): CC[C@H](C)[C@H](NC(=O)[C@H](CCC(N)=O)NC(=O)[C@H](C)NC(=O)[C@H](Cc1c[nH]c2ccccc12)NC(=O)[C@H](CCC(=O)O)NC(=O)[C@H](CCC(=O)O)NC(=O)[C@H](CCC(=O)O)NC(=O)[C@H](CC(C)C)NC(=O)[C@H](CO)NC(C)=O)C(=O)N[C@@H](CCC(=O)O)C(=O)N[C@H]1CSSC[C@@H](C(=O)N2CCC[C@H]2C(=O)N2CCC[C@H]2C(=O)N[C@@H](CO)C(=O)N[C@@H](CCCNC(=N)N)C(=O)N[C@@H](CO)C(N)=O)NC(=O)[C@H](CCCNC(=N)N)NC(=O)CNC(=O)[C@H](Cc2ccc(O)cc2)NC(=O)[C@H](C(C)C)NC(=O)[C@H](CCC(=O)O)NC1=O [Peptide E21R] (Ac-SLEEEWAQIECEVYGRCPPSRS-NH2; disulfide 11-17)
- hIRA Phosph IC50 Run 1 [1]: 28 nM
- hIRA Phosph IC50 Run 2 [1]: 27 nM
- hIRA Phosph IC50 Run 3 [1]: 29 nM
- pIC50 [1]: 7.55
- pKi [2]: 8.05
- Ki [2, 3]: 8.75 nM
- Ki [2, 4]: 8.05 nM
- Ki [2, 5]: 9.91 nM

Structure (SMILES): CC[C@H](C)[C@H](NC(=O)[C@H](CCC(N)=O)NC(=O)[C@H](C)NC(=O)[C@H](Cc1c[nH]c2ccccc12)NC(=O)[C@H](CCC(=O)O)NC(=O)[C@H](CCC(=O)O)NC(=O)[C@H](CCC(=O)O)NC(=O)[C@H](CC(C)C)NC(=O)[C@H](CO)NC(C)=O)C(=O)N[C@@H](CCC(=O)O)C(=O)N[C@H]1CSSC[C@@H](C(=O)N2CCC[C@H]2C(=O)N2CCC[C@H]2C(=O)N[C@@H](CO)C(=O)N[C@@H](CCC(=O)O)C(=O)N[C@@H](CO)C(N)=O)NC(=O)[C@H](CCCNC(=N)N)NC(=O)[C@H](C)NC(=O)[C@H](Cc2ccc(O)cc2)NC(=O)[C@H](C(C)C)NC(=O)[C@H](CCC(=O)O)NC1=O [Peptide G15A] (Ac-SLEEEWAQIECEVYARCPPSES-NH2; disulfide 11-17)
- hIRA Phosph IC50 Run 1 [1]: 601 nM
- hIRA Phosph IC50 Run 2 [1]: 587 nM
- hIRA Phosph IC50 Run 3 [1]: 624 nM
- pIC50 [1]: 6.22
- pKi [2]: 7.00
- Ki [2, 3]: 97.0 nM
- Ki [2, 4]: 117 nM
- Ki [2, 5]: 83.7 nM
- reduction in ki for hIR-A on substitution [2]: 10 fold
